From patent US11040018B2, “Formulation for inhibiting formation of 5-HT2B agonists and methods of using same” (ZOGENIX INTERNATIONAL LIMITED, priority 2016, dated 2021)
Values joined by “and” are separate entries in the source; they are usually repeats but may differ in a detail not shown here. Equal entries are not always repeated.

How the values were obtained:
[1] = target: CYP2D6 (Homo sapiens, UniProt P10635); settings: cited from earlier work
[2] = test system: CYP3A4; settings: cited from earlier work
[3] = Drug-drug interaction clinical trial: fenfluramine co-administered with stiripentol, clobazam and valproate; plasma levels of fenfluramine and norfenfluramine; settings: healthy volunteers; for Exposure impact: ratio of AUC0-72 for combination treatment to AUC0-72 for fenfluramine alone: single dose, fenfluramine 0.8 mg/kg with stiripentol 3,500 mg, clobazam 20 mg, valproate 25 mg/kg (≤1,500 mg), blood plasma, interim results
Experimental: The effects of co-administration of a three-drug regimen on fenfluramine metabolism and resultant plasma levels of fenfluramine and its metabolite norfenfluramine was assessed in a clinical trial using in healthy volunteers.
A randomized, open-label, single-dose, 3-way cross-over study was designed to examine the effects of co-administering fenfluramine with a three-drug cocktail consisting of stiripentol, clobazam, and valproate. Each patient was treated sequentially with three treatment regimens, each being administered individually, according to six different treatment sequences which were assigned randomly.
Subjects were recruited from an existing pool of volunteers or through direct advertising, Prospects who had participated in a study within three months prior of dosing were excluded from the pool of potential participants. A full medical history for the preceding 12-month period was obtained from each subject's primary care physician and evaluated. Patients were then assessed according to the inclusion and exclusion criteria shown below. Persons chosen as study participants underwent a screening visit prior to participation to reassess and confirm compliance with those criteria.
AUC0-72 values were calculated based on blood plasma levels of fenfluramine and norfenfluramine levels. Exposure impact is expressed as a ratio of AUC0-72 values determined for patients receiving the combination treatment to the AUC0-72 values determined for patients receiving fenfluramine alone.

[4] = target: 5-HT2B receptor (Homo sapiens, UniProt P41595); settings: cited from earlier work
[5] = target: CYP1A2 (Homo sapiens, UniProt P05177); settings: cited from earlier work
[6] = target: T1, CYP2B6 (Homo sapiens, UniProt P20813); settings: cited from earlier work
T1 sequence (P20813 1-491): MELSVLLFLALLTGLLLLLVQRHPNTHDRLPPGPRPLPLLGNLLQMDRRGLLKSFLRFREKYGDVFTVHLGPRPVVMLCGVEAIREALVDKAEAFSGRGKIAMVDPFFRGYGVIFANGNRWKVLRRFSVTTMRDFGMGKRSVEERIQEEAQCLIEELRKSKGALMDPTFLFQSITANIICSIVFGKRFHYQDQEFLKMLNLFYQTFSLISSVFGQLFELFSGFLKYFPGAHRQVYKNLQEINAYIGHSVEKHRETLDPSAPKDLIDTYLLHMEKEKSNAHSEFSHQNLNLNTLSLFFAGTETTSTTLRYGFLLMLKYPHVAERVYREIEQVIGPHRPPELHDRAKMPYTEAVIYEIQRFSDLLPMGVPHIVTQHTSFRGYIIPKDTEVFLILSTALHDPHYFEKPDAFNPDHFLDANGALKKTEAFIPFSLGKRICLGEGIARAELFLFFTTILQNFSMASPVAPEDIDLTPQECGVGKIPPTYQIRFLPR

[7] = target: T2, CYP2C8 (Homo sapiens, UniProt P10632); settings: cited from earlier work
T2 sequence (P10632 1-490): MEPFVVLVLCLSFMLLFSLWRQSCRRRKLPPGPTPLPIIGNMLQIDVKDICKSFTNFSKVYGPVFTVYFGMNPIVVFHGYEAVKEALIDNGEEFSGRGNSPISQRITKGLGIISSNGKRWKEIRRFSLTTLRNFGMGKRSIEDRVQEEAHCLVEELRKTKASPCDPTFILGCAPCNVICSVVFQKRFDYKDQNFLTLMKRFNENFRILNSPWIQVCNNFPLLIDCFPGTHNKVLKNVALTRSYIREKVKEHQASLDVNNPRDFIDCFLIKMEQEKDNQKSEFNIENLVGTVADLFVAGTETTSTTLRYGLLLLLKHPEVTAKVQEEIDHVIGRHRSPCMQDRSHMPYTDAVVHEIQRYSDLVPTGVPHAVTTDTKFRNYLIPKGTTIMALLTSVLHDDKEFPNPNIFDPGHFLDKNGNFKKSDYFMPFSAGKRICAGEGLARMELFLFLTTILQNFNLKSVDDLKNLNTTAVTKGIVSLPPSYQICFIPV

[8] = target: CYP2C9 (Homo sapiens, UniProt P11712); settings: cited from earlier work
[9] = target: CYP2C19 (Homo sapiens, UniProt P33261); settings: cited from earlier work
[10] = target: CYP3A4 (Homo sapiens, UniProt P08684); settings: cited from earlier work
Chain of CYP3A4 (Homo sapiens, UniProt P08684) (P08684 whole entry): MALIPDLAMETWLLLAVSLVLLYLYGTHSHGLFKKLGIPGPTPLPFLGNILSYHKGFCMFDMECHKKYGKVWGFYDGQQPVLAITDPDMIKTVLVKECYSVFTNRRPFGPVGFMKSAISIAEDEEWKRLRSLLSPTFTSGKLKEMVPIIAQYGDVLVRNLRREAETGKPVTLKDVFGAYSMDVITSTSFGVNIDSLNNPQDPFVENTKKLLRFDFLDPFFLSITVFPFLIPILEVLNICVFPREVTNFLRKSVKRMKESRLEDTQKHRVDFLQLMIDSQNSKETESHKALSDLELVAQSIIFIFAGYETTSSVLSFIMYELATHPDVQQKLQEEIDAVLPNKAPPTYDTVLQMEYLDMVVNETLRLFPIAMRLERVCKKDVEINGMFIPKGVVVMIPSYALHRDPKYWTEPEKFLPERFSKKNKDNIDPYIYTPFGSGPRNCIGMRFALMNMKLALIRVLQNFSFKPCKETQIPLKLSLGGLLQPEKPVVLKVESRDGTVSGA

Chain of 5-HT2B receptor (P41595 whole entry): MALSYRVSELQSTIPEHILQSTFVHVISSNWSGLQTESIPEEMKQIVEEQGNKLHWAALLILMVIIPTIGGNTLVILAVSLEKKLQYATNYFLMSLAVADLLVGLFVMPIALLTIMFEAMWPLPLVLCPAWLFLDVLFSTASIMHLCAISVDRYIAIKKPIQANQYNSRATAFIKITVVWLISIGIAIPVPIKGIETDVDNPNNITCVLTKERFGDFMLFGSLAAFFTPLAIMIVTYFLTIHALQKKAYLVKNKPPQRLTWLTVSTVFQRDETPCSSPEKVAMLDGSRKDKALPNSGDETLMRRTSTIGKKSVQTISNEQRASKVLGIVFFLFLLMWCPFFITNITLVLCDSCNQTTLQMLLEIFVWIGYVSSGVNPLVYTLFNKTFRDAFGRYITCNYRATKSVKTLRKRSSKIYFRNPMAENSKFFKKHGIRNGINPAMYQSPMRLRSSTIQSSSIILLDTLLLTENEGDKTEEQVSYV
Chain of CYP1A2 (P05177 whole entry): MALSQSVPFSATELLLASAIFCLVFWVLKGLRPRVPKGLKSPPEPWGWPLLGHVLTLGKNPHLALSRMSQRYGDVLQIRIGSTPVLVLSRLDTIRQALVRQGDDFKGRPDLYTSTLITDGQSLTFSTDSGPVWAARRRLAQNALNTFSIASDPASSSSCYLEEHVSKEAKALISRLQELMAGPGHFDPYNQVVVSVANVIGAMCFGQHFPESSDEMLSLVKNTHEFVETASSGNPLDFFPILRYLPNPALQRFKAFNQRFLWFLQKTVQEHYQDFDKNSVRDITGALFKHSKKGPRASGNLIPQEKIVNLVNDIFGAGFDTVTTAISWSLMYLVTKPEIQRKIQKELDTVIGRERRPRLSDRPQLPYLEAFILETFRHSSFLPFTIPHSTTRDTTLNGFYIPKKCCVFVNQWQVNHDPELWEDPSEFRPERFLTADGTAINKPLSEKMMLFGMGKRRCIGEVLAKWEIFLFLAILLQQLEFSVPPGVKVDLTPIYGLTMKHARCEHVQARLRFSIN
Chain of CYP2C19 (P33261 whole entry): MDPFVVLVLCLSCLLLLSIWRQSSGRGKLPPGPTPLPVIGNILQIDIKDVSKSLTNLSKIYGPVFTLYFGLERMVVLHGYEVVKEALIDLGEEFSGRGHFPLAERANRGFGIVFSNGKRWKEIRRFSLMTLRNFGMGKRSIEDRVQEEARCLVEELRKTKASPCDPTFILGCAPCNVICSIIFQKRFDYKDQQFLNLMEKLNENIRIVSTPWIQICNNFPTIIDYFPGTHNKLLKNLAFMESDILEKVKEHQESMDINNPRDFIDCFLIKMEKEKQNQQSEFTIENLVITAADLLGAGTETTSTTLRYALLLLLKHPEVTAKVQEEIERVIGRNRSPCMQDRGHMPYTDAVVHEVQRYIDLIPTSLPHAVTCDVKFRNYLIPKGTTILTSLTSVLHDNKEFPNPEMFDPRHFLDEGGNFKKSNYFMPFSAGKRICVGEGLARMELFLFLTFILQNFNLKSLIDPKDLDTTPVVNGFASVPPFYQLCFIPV
Chain of CYP2C9 (P11712 whole entry): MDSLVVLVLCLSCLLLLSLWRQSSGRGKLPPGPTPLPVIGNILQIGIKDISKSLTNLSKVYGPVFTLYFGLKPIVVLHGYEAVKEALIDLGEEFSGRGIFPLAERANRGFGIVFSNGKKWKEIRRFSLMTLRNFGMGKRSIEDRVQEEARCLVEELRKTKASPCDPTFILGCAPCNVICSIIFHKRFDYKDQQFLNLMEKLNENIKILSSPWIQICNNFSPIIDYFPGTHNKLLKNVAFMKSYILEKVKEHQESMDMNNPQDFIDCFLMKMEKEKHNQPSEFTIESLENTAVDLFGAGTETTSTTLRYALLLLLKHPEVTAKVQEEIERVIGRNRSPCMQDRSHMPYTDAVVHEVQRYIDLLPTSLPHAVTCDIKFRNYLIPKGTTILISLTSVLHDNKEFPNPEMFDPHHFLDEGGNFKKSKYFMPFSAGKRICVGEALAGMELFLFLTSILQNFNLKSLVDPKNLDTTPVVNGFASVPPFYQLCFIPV
Chain of CYP2D6 (P10635 whole entry): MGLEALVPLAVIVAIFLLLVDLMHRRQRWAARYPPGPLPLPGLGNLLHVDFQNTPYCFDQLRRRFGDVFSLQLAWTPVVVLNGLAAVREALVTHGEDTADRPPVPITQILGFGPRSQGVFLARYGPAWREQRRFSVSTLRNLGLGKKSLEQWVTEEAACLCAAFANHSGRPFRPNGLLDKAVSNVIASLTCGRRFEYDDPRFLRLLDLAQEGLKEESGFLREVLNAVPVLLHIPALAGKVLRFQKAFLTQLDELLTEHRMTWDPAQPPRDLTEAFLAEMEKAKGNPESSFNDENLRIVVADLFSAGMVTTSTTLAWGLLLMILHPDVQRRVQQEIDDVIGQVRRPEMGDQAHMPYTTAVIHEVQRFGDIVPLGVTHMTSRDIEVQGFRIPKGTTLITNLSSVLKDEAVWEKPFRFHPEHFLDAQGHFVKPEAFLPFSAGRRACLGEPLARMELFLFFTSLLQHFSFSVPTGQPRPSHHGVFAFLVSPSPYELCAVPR

Row | SMILES | Inhibition of CYP2D6 [1] | Exposure impact: ratio of AUC0-72 for combination treatment to AUC0-72 for fenfluramine alone [3] | Agonistic effect on 5-HT2B receptor [4] | Inhibition of CYP1A2 [5] | Inhibition of CYP2C9 [8] | Inhibition of CYP2C19 [9] | Inhibition of CYP3A4 [10] | other results
1 | CN1C(=O)CC(=O)N(c2ccccc2)c2cc(Cl)ccc21 [clobazam] | strongly inhibits |  |  |  |  |  |  | Induction of CYP3A4 [2]: weak inducer
2 | CCNC(C)Cc1cccc(C(F)(F)F)c1 (racemic) [fenfluramine, 3-trifluoromethyl-N-ethylamphetamine] |  | 1.66 and 1.67 | does not have significant agonistic effects |  |  |  |  | 
3 | C=C(C)[C@@H]1CCC(C)=C[C@H]1c1c(O)cc(CCCCC)cc1O [cannabidiol] | inhibitory effects |  |  | potent inhibitor of CYP1A2 (time-dependent effect) | inhibitory effects | inhibitory effects | potent inhibitor | Inhibition of CYP2B6 [6]: potent inhibitor; Inhibition of CYP2C8 [7]: inhibitory effects
4 | CC(N)Cc1cccc(C(F)(F)F)c1 (stereo not drawn) [norfenfluramine] |  | 0.59 | particularly potent 5-HT2B agonist |  |  |  |  | Reduction of patient exposure to norfenfluramine ([3]; fenfluramine co-administered with stiripentol, clobazam and valproate): ~30%
5 | CC(C)(C)C(O)/C=C/c1ccc2c(c1)OCO2 (stereo not drawn) [stiripentol] |  |  |  | strongly inhibits | less strongly | less strongly | strongly inhibits | 
